Where two headings read alike, the source gives them in different places.
Target: T1, factor Xa (Homo sapiens, UniProt P00742)
T1 construct: an F Xa reagent consisting of a lyophilized plasma fraction containing factor Xa; purchased Siemens Healthcare Diagnostics (Berichrom heparin assay, F Xa reagent); host or cells: plasma fraction
Assay: Determination of the F Xa binding constant (Ki) of peptide aldehyde ligands, chromogenic assay with Berichrom heparin assay reagents, Dixon plot
Assay type: biochemical
Experimental: The kinetic data of the peptide aldehyde ligands were determined in chromogenic assay formats by measuring the rate of hydrolysis of chromogenic peptide substrates which compete with the peptide aldehyde ligands for binding to the active site of the particular enzyme, at various substrate concentrations and peptide aldehyde-ligand concentrations. The binding constant (Ki) was determined by a known method (Dixon, M., 1953, Biochem J, 55, 170-171).
The F Xa binding constant was determined using the reagents of the Berichrom® heparin assay from Siemens Healthcare Diagnostics. The Berichrom® heparin assay consists of: an F Xa reagent consisting of a lyophilized plasma fraction containing factor Xa, and additives such as Tris, NaCl, EDTA and preservatives, a chromogenic substrate reagent (Z-D-Leu-Gly-Arg-ANBA-methyl-amide), a dilution reagent for reconstitution, and a dextran sulfate reagent consisting of lyophilized dextran sulfate.
After reconstitution in 10 ml of dilution reagent, the dextran sulfate concentration is 0.02 g/l. The F Xa reagent is reconstituted with the reconstituted dextran sulfate reagent. The substrate reagent, after constitution with 2 ml of deionized water, contains 4 mmol/l Z-D-Leu-Gly-Arg-ANBA-methyl-amide. Dilutions of the substrate reagent were prepared with deionized water. The peptide aldehyde ligands prepared according to example 1 were dissolved in water and used as sample. The assays were carried out automatically in a BCS® XP coagulation analyzer (Siemens Healthcare Diagnostics, Marburg, Germany).
A reaction mix was mixed together as follows:
15 μl of sample (peptide aldehyde ligand B-r-G-R—H or B-f-P—R—H), […]
30 μl of substrate reagent (Z-D-Leu-Gly-Arg-ANBA-methyl-amide).
The reaction rate in mE/min was determined on the basis of the increase in optical density of the reaction mix at a wavelength of 405 nm. For this, the optical density of the reaction mixes was determined in a time interval from 10 to 70 seconds.

T1 sequence (P00742 235-488 limits assumed): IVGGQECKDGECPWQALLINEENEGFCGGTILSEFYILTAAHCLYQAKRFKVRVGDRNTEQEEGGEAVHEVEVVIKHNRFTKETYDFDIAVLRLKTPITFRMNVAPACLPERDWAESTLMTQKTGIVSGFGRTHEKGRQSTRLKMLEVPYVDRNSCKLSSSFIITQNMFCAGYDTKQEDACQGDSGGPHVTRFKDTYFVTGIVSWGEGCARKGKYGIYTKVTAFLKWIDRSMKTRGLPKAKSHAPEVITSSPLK
T1 sequence (P00742 41-179 partner limits assumed): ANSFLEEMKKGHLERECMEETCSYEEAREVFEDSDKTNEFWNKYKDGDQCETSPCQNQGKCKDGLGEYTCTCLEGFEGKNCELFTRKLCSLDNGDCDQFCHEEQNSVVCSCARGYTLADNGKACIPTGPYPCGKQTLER

N=C(N)NCCC[C@@H](C=O)NC(=O)CNC(=O)[C@@H](CCCNC(=N)N)NC(=O)CCC(=O)NCCCOCCOCCOCCCNC(=O)CCCC[C@@H]1SC[C@@H]2NC(=O)N[C@@H]21 [B-r-G-R-H, biotinyl-Ttds-D-Arg-Gly-Arg-H]
1/Reaction rate (CB-r-G-R-H 0.20380 μM, Csubstrate = 0.5 mM): 5.521 min/E | 1/Reaction rate (CB-r-G-R-H 0.20380 μM, Csubstrate = 2 mM): 1.457 min/E | 1/Reaction rate (CB-r-G-R-H 0.20380 μM, Csubstrate = 4 mM): 0.8262 min/E | 1/Reaction rate (CB-r-G-R-H 0.32609 μM, Csubstrate = 0.5 mM): 6.13 min/E | 1/Reaction rate (CB-r-G-R-H 0.32609 μM, Csubstrate = 2 mM): 1.612 min/E | 1/Reaction rate (CB-r-G-R-H 0.32609 μM, Csubstrate = 4 mM): 0.9061 min/E | 1/Reaction rate (CB-r-G-R-H 0.40761 μM, Csubstrate = 0.5 mM): 6.408 min/E | 1/Reaction rate (CB-r-G-R-H 0.40761 μM, Csubstrate = 2 mM): 1.659 min/E | 1/Reaction rate (CB-r-G-R-H 0.40761 μM, Csubstrate = 4 mM): 0.9259 min/E | 1/Reaction rate (CB-r-G-R-H 0.65217 μM, Csubstrate = 0.5 mM): 7.754 min/E | 1/Reaction rate (CB-r-G-R-H 0.65217 μM, Csubstrate = 2 mM): 1.975 min/E | 1/Reaction rate (CB-r-G-R-H 0.65217 μM, Csubstrate = 4 mM): 1.099 min/E | 1/Reaction rate (CB-r-G-R-H 0.81522 μM, Csubstrate = 0.5 mM): 8.403 min/E | 1/Reaction rate (CB-r-G-R-H 0.81522 μM, Csubstrate = 2 mM): 2.115 min/E | 1/Reaction rate (CB-r-G-R-H 0.81522 μM, Csubstrate = 4 mM): 1.177 min/E | 1/Reaction rate (CB-r-G-R-H 1.30435 μM, Csubstrate = 0.5 mM): 12.05 min/E | 1/Reaction rate (CB-r-G-R-H 1.30435 μM, Csubstrate = 2 mM): 2.802 min/E | 1/Reaction rate (CB-r-G-R-H 1.30435 μM, Csubstrate = 4 mM): 1.476 min/E | 1/Reaction rate (CB-r-G-R-H 1.63043 μM, Csubstrate = 0.5 mM): 13.97 min/E | 1/Reaction rate (CB-r-G-R-H 1.63043 μM, Csubstrate = 2 mM): 3.147 min/E | 1/Reaction rate (CB-r-G-R-H 1.63043 μM, Csubstrate = 4 mM): 1.679 min/E | 1/Reaction rate (CB-r-G-R-H 2.60870 μM, Csubstrate = 0.5 mM): 20.14 min/E | 1/Reaction rate (CB-r-G-R-H 2.60870 μM, Csubstrate = 2 mM): 4.627 min/E | 1/Reaction rate (CB-r-G-R-H 2.60870 μM, Csubstrate = 4 mM): 2.274 min/E | 1/Reaction rate (CB-r-G-R-H 3.26087 μM, Csubstrate = 0.5 mM): 26.42 min/E | 1/Reaction rate (CB-r-G-R-H 3.26087 μM, Csubstrate = 2 mM): 5.52 min/E | 1/Reaction rate (CB-r-G-R-H 3.26087 μM, Csubstrate = 4 mM): 2.728 min/E | 1/Reaction rate (CB-r-G-R-H 4.89130 μM, Csubstrate = 0.5 mM): 37.79 min/E | 1/Reaction rate (CB-r-G-R-H 4.89130 μM, Csubstrate = 2 mM): 8.244 min/E | 1/Reaction rate (CB-r-G-R-H 4.89130 μM, Csubstrate = 4 mM): 3.745 min/E | 1/Reaction rate (CB-r-G-R-H 6.52174 μM, Csubstrate = 0.5 mM): 52.69 min/E | 1/Reaction rate (CB-r-G-R-H 6.52174 μM, Csubstrate = 2 mM): 10.45 min/E | 1/Reaction rate (CB-r-G-R-H 6.52174 μM, Csubstrate = 4 mM): 4.819 min/E | 1/Reaction rate (CB-r-G-R-H 8.15217 μM, Csubstrate = 0.5 mM): 62.32 min/E | 1/Reaction rate (CB-r-G-R-H 8.15217 μM, Csubstrate = 2 mM): 12.99 min/E | 1/Reaction rate (CB-r-G-R-H 8.15217 μM, Csubstrate = 4 mM): 5.669 min/E | 1/Reaction rate (CB-r-G-R-H 13.04348 μM, Csubstrate = 0.5 mM): 98.11 min/E | 1/Reaction rate (CB-r-G-R-H 13.04348 μM, Csubstrate = 2 mM): 19.61 min/E | 1/Reaction rate (CB-r-G-R-H 13.04348 μM, Csubstrate = 4 mM): 8.47 min/E | Intersect of regression curve 1/reaction rate vs ligand concentration (Csubstrate 0.5 mM): 2.8743 min/E | Slope of regression curve 1/reaction rate vs ligand concentration (Csubstrate 0.5 mM): 7.3110 min/E μM | Intersect of regression curve 1/reaction rate vs ligand concentration (Csubstrate 2 mM): 1.0169 min/E | Slope of regression curve 1/reaction rate vs ligand concentration (Csubstrate 2 mM): 1.4375 min/E μM | Intersect of regression curve 1/reaction rate vs ligand concentration (Csubstrate 4 mM): 0.7187 min/E | Slope of regression curve 1/reaction rate vs ligand concentration (Csubstrate 4 mM): 0.6037 min/E μM | Ki (intersection of regression curves Csubstrate 2 and 0.5 mM, read-out: Ki2&3 F Xa binding constant): 0.316 µM | Ki (intersection of regression curves Csubstrate 4 and 0.5 mM, read-out: Ki1&3 F Xa binding constant): 0.321 µM | Ki (intersection of regression curves Csubstrate 4 and 2 mM, read-out: Ki1&2 F Xa binding constant): 0.358 µM | binding of the peptide aldehyde with F Xa (reversible or irreversible) (intersections of regression curves not on the x axis): reversible | Ki (read-out: average F Xa binding constant KiM): 0.332 µM

From US8889370B2, “Method of determining inhibitors of coagulation” (Siemens Healthcare Diagnostics Products GmbH, priority 2010, dated 2014)
